Experimental data taken from US20230000773A1, “NOVEL HEADGROUP LIPID COMPOUNDS AND COMPOSITIONS FOR INTRACELLULAR DELIVERY OF THERAPEUTIC AGENTS” (ModernaTX, Inc., priority 2019, published 2023).
Counter-ions that a name gives are not always drawn.

How the values were obtained:
[1] = tested on: hEPO mRNA; assay: hEPO expression in CD1-mice after intravenous administration of nanoparticles; format: in vivo; details: 6 h after intravenous administration, mRNA dose 0.5 mg/kg, N:P 3.4, compound:DSPC:cholesterol:PEG 2 50:10:38:2
Description: The expression of hEPO mRNA in CD1-mice was measured 6 h after intravenous administration of nanoparticles comprising a compound of the disclosure, DSPC, cholesterol, and PEG 2 in a ratio of 50:10:38:2. […] Each composition was dosed to 8 animals at an mRNA dose of 0.5 mg/kg.

[2] = Surface hydrophobicity by Generalized Polarization by Laurdan (GPL); format: physicochemical; details: normalized Generalized Polarization by Laurdan; higher N-GP = less polar surface
From the text: Nanoparticle compositions including a therapeutic and/or prophylactic can be optimized according to the selection of a compound according to Formula (I), (I-1), (A), (A-1), (A-1a), or (A-1b), the selection of additional lipids, the amount of each lipid in the lipid component, and the wt:wt ratio of the lipid component to the therapeutic and/or prophylactic. Nanoparticle compositions including DSPC as a phospholipid, cholesterol as a structural lipid, PEG 2 as a PEG lipid, and a compound according to Formula (I), (I-1), (A), (A-1), (A-1a), or (A-1b) were prepared. The ratios of the lipids were 50:10:38:2 mol % for the lipid according to Formula (I), (I-1), (A), (A-1), (A-1a), or (A-1b):DSPC:cholesterol:PEG 2.
Laurdan, a fluorescent aminonaphthalene ketone lipid, was post-inserted into the nanoparticle surface and the fluorescence spectrum of Laurdan was collected to determine the normalized Generalized Polarization (N-GP). Higher N-GP indicates a less polar surface.

[3] = Apparent LNP pKa by 2-(p-toluidino)-6-napthalene sulfonic acid (TNS) assay; format: physicochemical; details: pH at half of maximum fluorescence
[4] = Heparin-sepharose binding of nanoparticles

Compound	Avg. [hEPO] mIU/mL [1]	Average N-GP [2]	LogIC50 (pKa) [3]	Relative % Area Bound by LNP [4]
CCCCCCCCC(CC)OC(=O)CCCCCCCN(CCCCCCCC(=O)OC(CCCCCCCC)CCCCCCCC)CCCN/C=C1\NC(=O)NC1=O (mixture of isomers) [Compound 51/52, Heptadecan-9-yl (E/Z)-8-((3-(((2,5-dioxoimidazolidin-4-ylidene)methyl)amino)propyl)(8-oxo-8-(undecan-3-yloxy)octyl)amino)octanoate]	1.86E+05 mIU/mL	0.921	6.48	2.25%
CCCCCCCCC(CC)OC(=O)CCCCCCCN(CCCCCCCC(=O)OC(CCCCCCCC)CCCCCCCC)CCCN/C(=N/O)c1nonc1N (racemic) [Compound 55/56, Heptadecan-9-yl (E/Z)-8-((3-(4-amino-N′-hydroxy-1,2,5-oxadiazole-3-carboximidamido)propyl)(8-oxo-8-(undecan-3-yloxy)octyl)amino)octanoate]	1.37E+05 mIU/mL	–	5.61	0%
CCCCCCCCC(CC)OC(=O)CCCCCCCN(CCCCCCCC(=O)OC(CCCCCCCC)CCCCCCCC)CCCNc1nnc(N)[nH]1 (stereo not drawn) [Compound 11, Heptadecan-9-yl 8-((3-((5-amino-4H-1,2,4-triazol-3-yl)amino)propyl)(8-oxo-8-(undecan-3-yloxy)octyl)amino)octanoate]	1.69E+04 mIU/mL	–	6.88	–
CCCCCCCCC(CC)OC(=O)CCCCCCCN(CCCCCCCC(=O)OC(CCCCCCCC)CCCCCCCC)CCCNC(C(=O)NC)C(=O)NC (stereo not drawn) [Compound 16, Heptadecan-9-yl 8-((3-((1,3-bis(methylamino)-1,3-dioxopropan-2-yl)amino)propyl)(8-oxo-8-(undecan-3-yloxy)octyl)amino)octanoate Trifluoroacetate Salt]	1.72E+05 mIU/mL	0.595	7.01	57.65%
CCCCCCCCC(CC)OC(=O)CCCCCCCN(CCCCCCCC(=O)OC(CCCCCCCC)CCCCCCCC)CCCNc1nccnc1NC (stereo not drawn) [Compound 25, Heptadecan-9-yl 8-((3-((3-(methylamino)pyrazin-2-yl)amino)propyl)(8-oxo-8-(undecan-3-yloxy)octyl)amino)octanoate, trifluoroacetate Salt]	4.29E+05 mIU/mL	0.869	7.46	0%
CCCCCCCCC(CC)OC(=O)CCCCCCCN(CCCCCCCC(=O)OC(CCCCCCCC)CCCCCCCC)CCCNS(=O)(=O)c1ncccn1 (stereo not drawn) [Compound 73, Heptadecan-9-yl 8-((8-oxo-8-(undecan-3-yloxy)octyl)(3-(pyrimidine-2-sulfonamido)propyl)amino)octanoate]	4.64E+05 mIU/mL	0.747	6.61	0%
CCCCCCCCC(CC)OC(=O)CCCCCCCN(CCCCCCCC(=O)OC(CCCCCCCC)CCCCCCCC)CCCNS(=O)(=O)Cc1ccccc1 (stereo not drawn) [Compound 74, Heptadecan-9-yl 8-((8-oxo-8-(undecan-3-yloxy)octyl)(3-((phenylmethyl)sulfonamido)propyl)amino)octanoate]	1.21E+05 mIU/mL	0.938	6.42	6.14%
CCCCCCCCC(CC)OC(=O)CCCCCCCN(CCCCCCCC(=O)OC(CCCCCCCC)CCCCCCCC)CCCNS(=O)(=O)c1ccnn1COC (stereo not drawn) [Compound 75, Heptadecan-9-yl 8-((3-((1-(methoxymethyl)-1H-pyrazole)-5-sulfonamido)propyl)(8-oxo-8-(undecan-3-yloxy)octyl)amino)octanoate]	6.24E+05 mIU/mL	0.831	6.50	1.97%
CCCCCCCCC(CC)OC(=O)CCCCCCCN(CCCCCCCC(=O)OC(CCCCCCCC)CCCCCCCC)CCCNC(=O)CS(=O)(=O)NC (stereo not drawn) [Compound 76, Heptadecan-9-yl 8-((3-(2-(N-methylsulfamoyl)acetamido)propyl)(8-oxo-8-(undecan-3-yloxy)octyl)amino)octanoate]	1.50E+05 mIU/mL	0.683	6.92	31.61%
CCCCCCCCC(CC)OC(=O)CCCCCCCN(CCCCCCCC(=O)OC(CCCCCCCC)CCCCCCCC)CCCNC1=NS(=O)(=O)CCN1 (stereo not drawn) [Compound 77, Heptadecan-9-yl 8-((3-((1,1-dioxido-5,6-dihydro-4H-1,2,4-thiadiazin-3-yl)amino)propyl)(8-oxo-8-(undecan-3-yloxy)octyl)amino)octanoate]	7.75E+04 mIU/mL	0.824	6.80	0%
CCCCCCCCC(CC)OC(=O)CCCCCCCN(CCCCCCCC(=O)OC(CCCCCCCC)CCCCCCCC)CCCNC(=O)C1CCC(=O)N1 (stereo not drawn) [Compound 78, Heptadecan-9-yl 8-((8-oxo-8-(undecan-3-yloxy)octyl)(3-(5-oxopyrrolidine-2-carboxamido)propyl)amino)octanoate]	1.11E+05 mIU/mL	0.622	6.94	36.14%
CCCCCCCCC(CC)OC(=O)CCCCCCCN(CCCCCCCC(=O)OC(CCCCCCCC)CCCCCCCC)CCCNC1=NC(=O)NC1 (stereo not drawn) [Compound 79, Heptadecan-9-yl 8-((3-((2-oxo-2,5-dihydro-1H-imidazol-4-yl)amino)propyl)(8-oxo-8-(undecan-3-yloxy)octyl)amino)octanoate]	4.04E+04 mIU/mL	0.683	6.23	0%
CCCCCCCCC(CC)OC(=O)CCCCCCCN(CCCCCCCC(=O)OC(CCCCCCCC)CCCCCCCC)CCCNS(=O)(=O)CC(=O)NC (stereo not drawn) [Compound 80, Heptadecan-9-yl 8-((3-((2-(methylamino)-2-oxoethyl)sulfonamido)propyl)(8-oxo-8-(undecan-3-yloxy)octyl)amino)octanoate]	7.69E+04 mIU/mL	0.703	6.75	10.99%
CCCCCCCCC(CC)OC(=O)CCCCCCCN(CCCCCCCC(=O)OC(CCCCCCCC)CCCCCCCC)CCCNC1=C(C#N)C(=O)OC1 (stereo not drawn) [Compound 81, Heptadecan-9-yl 8-((3-((4-cyano-5-oxo-2,5-dihydrofuran-3-yl)amino)propyl)(8-oxo-8-(undecan-3-yloxy)octyl)amino)octanoate Trifluoroacetate Salt]	4.96E+05 mIU/mL	0.752	6.48	0%
CCCCCCCCC(CC)OC(=O)CCCCCCCN(CCCCCCCC(=O)OC(CCCCCCCC)CCCCCCCC)CCCNc1nnc(N)s1 (stereo not drawn) [Compound 82, Heptadecan-9-yl 8-((3-((5-amino-1,3,4-thiadiazol-2-yl)amino)propyl)(8-oxo-8-(undecan-3-yloxy)octyl)amino)octanoate Trifluoroacetate Salt]	2.18E+05 mIU/mL	0.920	6.25	1.67%
CCCCCCCCC(CC)OC(=O)CCCCCCCN(CCCCCCCC(=O)OC(CCCCCCCC)CCCCCCCC)CCCN/C=N/S(C)(=O)=O (stereo not drawn) [Compound 86, Heptadecan-9-yl (E)-8-((3-(N′-(methylsulfonyl)formimidamido)propyl)(8-oxo-8-(undecan-3-yloxy)octyl)amino)octanoate]	–	0.737	6.59	0%
